Results reported in patent US20100310591A1 (priority 2009, published 2010).
“And” between values parts separate entries of the source, which are not always exact repeats. Identical values can stand only once. Like-named read-outs stand apart in the source and are kept apart here. Non-standard residues stand in square brackets, D forms with d. Ava = NCCCCC(=O)O

Columns and labels:
[1] = test system: TPc9.1 T hybridoma with CH27 antigen presenting cells; assay: T hybridoma response assay (APC + T hybridoma, HT-2 [3H]TdR uptake readout); type: cell-based, murine; settings: for EC50: serial 1:4 dilutions from 3 μM, 24 hr stimulation
Protocol: Biological Activities of Hybrid Peptides [00103) The biological activities of the series of peptides listed in Table I were determined with the T hybridoma response assay. A T cell hybridoma which is specific to the hornworm moth cytochrome C epitope IAYLKQATAK (SEQ ID NO: 8) was stimulated with that antigenic peptide or with members of the series of hybrids of the antigenic peptide and the core Ii-Key sequence listed in Table I. The hybrids were joined with spacers of various lengths. The spacers contained either amino acids in the natural sequence of the Ii protein, or methylene (—CH2—) groups of 5-amino-n-valeric acid (ava; 5-aminopentanoic acid). Cultures of an antigen presenting cell and T cell hybridoma were incubated with serial 1:4 dilutions of the antigenic peptide, from 3 μM. Response was determined by measuring tritiated thymidine uptake by an HT-2 culture to which supernatants of the antigenic stimulation culture (24 hr stimulation period) had been transferred (see, Table 2). The endpoint for half maximal response to Hybrid 1, the antigenic peptide, was about 20 nM. The endpoint for half maximal stimulation with Hybrids 5 and 2 was about 50 pM.
For this assay the following components were added at the same time of the primary culture: (a) The hybrid peptide containing the antigenic epitope (Table I); (b) mitomycin C-treated, MHC class II-positive antigen presenting cells (APC) with the MHC class II allele required for binding of the specific antigenic peptide and its presentation to the antigenic peptide-specific T cell hybridoma; (c) MHC class II allele-restricted T cell hybridoma specific for the antigenic peptide and the MHC class II allele restricting its presentation. At the end of the incubation of this primary culture, an aliquot of its supernatant was transferred into a second culture well for incubation with an interleukin-dependent lymphoblastoid cell line. The degree of stimulation of that second indicator cell by the interleukins which had been released from the activated T cell hybridoma in the primary culture was measured by quantitating tritiated thymidine deoxyribose {[^3H]TdR} uptake into the DNA of the HT-2 indicator cells of that second culture.
The hybrids between Ii-Key core sequence LRMK (SEQ ID NO: 3) and PGCC95-104, pigeon cytochrome C 95-104, IAYLKQATAK (SEQ ID NO: 8) are presented by E^k. The peptides were dissolved in phosphate-buffered saline (PBS; 0.01 M sodium phosphate buffer, pH 7.2, 0.1 M NaCl). The solutions were sterilized by filtration. The TPc9.1 T hybridoma is specific for pigeon cytochrome C 81-104 peptide presented on the murine class II MHC allele E^k. The CH27 B cell lymphoma line which expresses H-2^k alleles was used as the antigen presenting cell.
Antigenic peptide-specific T cell activation was measured by the following procedure. Mitomycin C-treated CH27 cells (A^kE^k) APC were generated by incubating 5.×10^6 cells/mL for 20 min at 37° C. with 0.025 mg/mL of mitomycin C (Sigma) in Dulbecco's Modified Eagle's Medium (DMEM)/10 mM N-2 (hydroxyethylpiperazine-N′[2-ethanesulfonic acid] (HEPES), followed by two washes with four volumes of DMEM-5% fetal calf serum (FCS), 10 mM HEPES. T cell hybridomas were irradiated 2200 rads before each assay.
For the primary culture assay, 5×10^4 mitomycin C-treated APC, 5×10^4 T hybridoma cells and serial 1:4 dilutions from 3 uM of the peptides containing antigenic epitopes were cultured at pH 7.2-7.4, in complete DMEM-5% FCS, 10 mM HEPES, 1× nonessential amino acids (Sigma), 1 mM sodium pyruvate, 2 mM L-glutamine. 100 U/mL penicillin G, 100 μg/mL streptomycin sulfate, 5×10^−5 M 2-mercaptoethanol (2-ME). Wells containing only T hybridoma cells (T)+APC were included to monitor for background T cell activation; and wells containing T+APC+antigenic peptide were included to monitor for non-specific T hybridoma activation by each AE101 series peptide. […]

[2] = test system: CD4+ T cells (CD8+ depleted PBMC of rHA-responsive donors); type: cell-based, human
[3] = read-out: endpoint for half maximal stimulation

Ac-LRMK (SEQ ID NO: 3)-5-aminopentanoyl-5-aminopentanoyl-IAYLKQATAK (SEQ ID NO: 8)-NH2 (Ac-LRMK[Ava][Ava]IAYLKQATAK-NH2; SMILES CC[C@H](C)[C@H](NC(=O)CCCCNC(=O)CCCCNC(=O)[C@H](CCCCN)NC(=O)[C@H](CCSC)NC(=O)[C@H](CCCNC(=N)N)NC(=O)[C@H](CC(C)C)NC(C)=O)C(=O)N[C@@H](C)C(=O)N[C@@H](Cc1ccc(O)cc1)C(=O)N[C@@H](CC(C)C)C(=O)N[C@@H](CCCCN)C(=O)N[C@@H](CCC(N)=O)C(=O)N[C@@H](C)C(=O)N[C@H](C(=O)N[C@@H](C)C(=O)N[C@@H](CCCCN)C(N)=O)[C@@H](C)O) [Hybrid 3]
activity of hybrid (in words) [1]: comparable to those with the natural sequence of Ii protein | immunological response to the antigenic epitope (T cell proliferative response) ([1]; Conc. 0.01 nM): 0.6 thousands of counts per minute | immunological response to the antigenic epitope (T cell proliferative response) ([1]; Conc. 0.05 nM): 5.3 thousands of counts per minute | immunological response to the antigenic epitope (T cell proliferative response) ([1]; Conc. 0.18 nM): 21.6 thousands of counts per minute | immunological response to the antigenic epitope (T cell proliferative response) ([1]; Conc. 0.73 nM): 22.3 thousands of counts per minute | immunological response to the antigenic epitope (T cell proliferative response) ([1]; Conc. 3 nM): 27.9 thousands of counts per minute | immunological response to the antigenic epitope (T cell proliferative response) ([1]; Conc. 12 nM): 29.5 thousands of counts per minute | immunological response to the antigenic epitope (T cell proliferative response) ([1]; Conc. 47 nM): 26.2 thousands of counts per minute | immunological response to the antigenic epitope (T cell proliferative response) ([1]; Conc. 188 nM): 26.2 thousands of counts per minute | immunological response to the antigenic epitope (T cell proliferative response) ([1]; Conc. 750 nM): 31.7 thousands of counts per minute | immunological response to the antigenic epitope (T cell proliferative response) ([1]; Conc. 3000 nM): 31.9 thousands of counts per minute

Ac-LRMK (SEQ ID NO: 3)-5-aminopentanoyl-IAYLKQATAK (SEQ ID NO: 8)-NH2 (Ac-LRMK[Ava]IAYLKQATAK-NH2; SMILES CC[C@H](C)[C@H](NC(=O)CCCCNC(=O)[C@H](CCCCN)NC(=O)[C@H](CCSC)NC(=O)[C@H](CCCNC(=N)N)NC(=O)[C@H](CC(C)C)NC(C)=O)C(=O)N[C@@H](C)C(=O)N[C@@H](Cc1ccc(O)cc1)C(=O)N[C@@H](CC(C)C)C(=O)N[C@@H](CCCCN)C(=O)N[C@@H](CCC(N)=O)C(=O)N[C@@H](C)C(=O)N[C@H](C(=O)N[C@@H](C)C(=O)N[C@@H](CCCCN)C(N)=O)[C@@H](C)O) [Hybrid 2]
activity of hybrid (in words) [1]: comparable to those with the natural sequence of Ii protein | immunological response to the antigenic epitope (T cell proliferative response) ([1]; Conc. 0.01 nM): 3.4 thousands of counts per minute | immunological response to the antigenic epitope (T cell proliferative response) ([1]; Conc. 0.05 nM): 19.8 thousands of counts per minute | immunological response to the antigenic epitope (T cell proliferative response) ([1]; Conc. 0.18 nM): 31.2 thousands of counts per minute | immunological response to the antigenic epitope (T cell proliferative response) ([1]; Conc. 0.73 nM): 38.8 thousands of counts per minute | immunological response to the antigenic epitope (T cell proliferative response) ([1]; Conc. 3 nM): 30.1 thousands of counts per minute | immunological response to the antigenic epitope (T cell proliferative response) ([1]; Conc. 12 nM): 21.9 thousands of counts per minute | immunological response to the antigenic epitope (T cell proliferative response) ([1]; Conc. 47 nM): 20.8 thousands of counts per minute | immunological response to the antigenic epitope (T cell proliferative response) ([1]; Conc. 188 nM): 27.2 thousands of counts per minute | immunological response to the antigenic epitope (T cell proliferative response) ([1]; Conc. 750 nM): 23.9 thousands of counts per minute | immunological response to the antigenic epitope (T cell proliferative response) ([1]; Conc. 3000 nM): 25.1 thousands of counts per minute | EC50 [1, 3]: ~0.05 nM

Ac-LRMKLPKSAKPVSKIAYLKQATAK-NH2 (SEQ ID NO: 11) [Hybrid 6]
activity of hybrid (in words) [1]: sub-optimal activity | immunological response to the antigenic epitope (T cell proliferative response) ([1]; Conc. 0.01 nM): 2.9 thousands of counts per minute | immunological response to the antigenic epitope (T cell proliferative response) ([1]; Conc. 0.05 nM): 2.4 thousands of counts per minute | immunological response to the antigenic epitope (T cell proliferative response) ([1]; Conc. 0.18 nM): 11.9 thousands of counts per minute | immunological response to the antigenic epitope (T cell proliferative response) ([1]; Conc. 0.73 nM): 28.7 thousands of counts per minute | immunological response to the antigenic epitope (T cell proliferative response) ([1]; Conc. 3 nM): 31.4 thousands of counts per minute | immunological response to the antigenic epitope (T cell proliferative response) ([1]; Conc. 12 nM): 39.2 thousands of counts per minute | immunological response to the antigenic epitope (T cell proliferative response) ([1]; Conc. 47 nM): 25.3 thousands of counts per minute | immunological response to the antigenic epitope (T cell proliferative response) ([1]; Conc. 188 nM): 26.9 thousands of counts per minute | immunological response to the antigenic epitope (T cell proliferative response) ([1]; Conc. 750 nM): 23.4 thousands of counts per minute | immunological response to the antigenic epitope (T cell proliferative response) ([1]; Conc. 3000 nM): 21.5 thousands of counts per minute

Ac-LRMKLPKSIAYLKQATAK-NH2 (SEQ ID NO: 9) [Hybrid 4]
immunological response to the antigenic epitope (T cell proliferative response) ([1]; Conc. 0.01 nM): 2.5 thousands of counts per minute | immunological response to the antigenic epitope (T cell proliferative response) ([1]; Conc. 0.05 nM): 5.8 thousands of counts per minute | immunological response to the antigenic epitope (T cell proliferative response) ([1]; Conc. 0.18 nM): 9.1 thousands of counts per minute | immunological response to the antigenic epitope (T cell proliferative response) ([1]; Conc. 0.73 nM): 19.2 thousands of counts per minute | immunological response to the antigenic epitope (T cell proliferative response) ([1]; Conc. 3 nM): 19.0 thousands of counts per minute | immunological response to the antigenic epitope (T cell proliferative response) ([1]; Conc. 12 nM): 23.1 thousands of counts per minute | immunological response to the antigenic epitope (T cell proliferative response) ([1]; Conc. 47 nM): 19.5 thousands of counts per minute | immunological response to the antigenic epitope (T cell proliferative response) ([1]; Conc. 188 nM): 20.8 thousands of counts per minute | immunological response to the antigenic epitope (T cell proliferative response) ([1]; Conc. 750 nM): 23.3 thousands of counts per minute | immunological response to the antigenic epitope (T cell proliferative response) ([1]; Conc. 3000 nM): 25.2 thousands of counts per minute

FFRNVVWLIKKNSTYPT [BEI 28]
in vitro CD4 response, fold above background [2]: 3.7 fold above background

IAYLKQATAK [Hybrid 1, Ac-IAYLKQATAK—NH2 (SEQ ID NO: 8), reference compound]
immunological response to the antigenic epitope (T cell proliferative response) ([1]; Conc. 0.01 nM): 0 thousands of counts per minute | immunological response to the antigenic epitope (T cell proliferative response) ([1]; Conc. 0.05 nM): 0 thousands of counts per minute | immunological response to the antigenic epitope (T cell proliferative response) ([1]; Conc. 0.18 nM): 0 thousands of counts per minute | immunological response to the antigenic epitope (T cell proliferative response) ([1]; Conc. 0.73 nM): 4 thousands of counts per minute | immunological response to the antigenic epitope (T cell proliferative response) ([1]; Conc. 3 nM): 0.4 thousands of counts per minute | immunological response to the antigenic epitope (T cell proliferative response) ([1]; Conc. 12 nM): 10.9 thousands of counts per minute | immunological response to the antigenic epitope (T cell proliferative response) ([1]; Conc. 47 nM): 29.5 thousands of counts per minute | immunological response to the antigenic epitope (T cell proliferative response) ([1]; Conc. 188 nM): 32.4 thousands of counts per minute | immunological response to the antigenic epitope (T cell proliferative response) ([1]; Conc. 750 nM): 27.8 thousands of counts per minute | immunological response to the antigenic epitope (T cell proliferative response) ([1]; Conc. 3000 nM): 25.2 thousands of counts per minute | EC50 ([1]; read-out: endpoint for half maximal response): ~20 nM

IGECPKYVKSNRLVLAT [BEI 54]
in vitro CD4 response, fold above background [2]: 3.9 fold above background and 3.8 fold above background

KMEDGFLDVWTYNAELL [BEI 73]
in vitro CD4 response, fold above background [2]: 15 fold above background

KRGLFGAIAGFIEGGWQ [BEI 59]
recognition frequency among donors [2]: 21%

LRMKLPKSAKPIAYLKQATAK [Hybrid 5]
immunological response to the antigenic epitope (T cell proliferative response) ([1]; Conc. 0.01 nM): 14.3 thousands of counts per minute | immunological response to the antigenic epitope (T cell proliferative response) ([1]; Conc. 0.05 nM): 21.3 thousands of counts per minute | immunological response to the antigenic epitope (T cell proliferative response) ([1]; Conc. 0.18 nM): 36.7 thousands of counts per minute | immunological response to the antigenic epitope (T cell proliferative response) ([1]; Conc. 0.73 nM): 30.1 thousands of counts per minute | immunological response to the antigenic epitope (T cell proliferative response) ([1]; Conc. 3 nM): 31.4 thousands of counts per minute | immunological response to the antigenic epitope (T cell proliferative response) ([1]; Conc. 12 nM): 44.6 thousands of counts per minute | immunological response to the antigenic epitope (T cell proliferative response) ([1]; Conc. 47 nM): 26.2 thousands of counts per minute | immunological response to the antigenic epitope (T cell proliferative response) ([1]; Conc. 188 nM): 29.1 thousands of counts per minute | immunological response to the antigenic epitope (T cell proliferative response) ([1]; Conc. 750 nM): 27.5 thousands of counts per minute | immunological response to the antigenic epitope (T cell proliferative response) ([1]; Conc. 3000 nM): 27.3 thousands of counts per minute | EC50 [1, 3]: ~0.05 nM
